Each block holds one compound with its values, some of them ahead of it.
What was measured:
[1] = in vivo; cited from earlier work
[2] = cited from earlier work
[3] = cited from earlier work; remark: listed apart in the source
human NK3 receptor = target: T1, human NK3 receptor (Homo sapiens, UniProt P29371); assay: NK3 receptor binding assay; conditions: filter-based competition binding vs ~0.05 nM 3H-AE93103, membranes of BHK cells expressing human NK3; Ki by Cheng Prusoff; read-out: Affinity (Ki/nM)
T1 construct: expressed in transfected cells; membranes prepared
T1 sequence (P29371 1-465): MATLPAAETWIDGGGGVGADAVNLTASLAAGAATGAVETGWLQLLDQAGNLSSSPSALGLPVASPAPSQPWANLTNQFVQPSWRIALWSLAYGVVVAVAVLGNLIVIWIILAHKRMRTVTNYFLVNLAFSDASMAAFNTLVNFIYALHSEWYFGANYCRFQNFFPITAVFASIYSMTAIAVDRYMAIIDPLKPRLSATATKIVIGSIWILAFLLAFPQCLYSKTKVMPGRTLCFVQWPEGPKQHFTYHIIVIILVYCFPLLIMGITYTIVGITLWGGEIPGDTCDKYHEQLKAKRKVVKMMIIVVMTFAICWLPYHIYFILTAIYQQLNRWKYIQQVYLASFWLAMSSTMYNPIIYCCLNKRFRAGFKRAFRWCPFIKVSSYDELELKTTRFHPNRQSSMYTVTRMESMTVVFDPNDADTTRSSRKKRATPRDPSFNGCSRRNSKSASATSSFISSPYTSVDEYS
Procedure: Membranepreparation: BHK cells stably expressing the human NK3 receptor were seeded in harvesting plates in Dulbeccos MEM containing GlutaMax (862 mg/l), 1 mM sodium pyruvate, 10% fetal calf serum, 1% Pen/Strep, 1 mg/ml G418 and were grown at 34° C. in a humidified atmosphere containing 10% CO2. To increase receptor expression, 10 μM trichotatin A was added to the media 24 hours before harvest of the cells at a confluency of app 90%. Prior to the harvesting, the cells were washed twice with PBS without Mg^2+ and Ca^2+ and subsequently scrapped of in 10 ml PBS pr harvesting plate. The cells suspension were centrifuged at 1500×G in three minutes before resuspension in 15 mM Tris-HCl pH 7,5 buffer containing 2 mM MgCl2; 0,3 mM EDTA and 1 mM EGTA (buffer A). The cell suspention was homogenised and subsequently centrifuged at 40000×G in 30 minutes. The membrane-pellet was resuspended in buffer A containing 250 mM sucrose, alliquoted and stored at −80° C.
Affinity assay description: The assay is performed as a filter-based competition-binding in a 50 mM Tris pH 7.4 assay buffer containing 120 mM NaCl and 3 mM MnCl2. App 0.05 nM ^3H-AE93103 was mixed with test compounds before addition of 0.15 μg of a homogenised NK3 membrane preparation in a total volume of 300 μl. The assay plate is incubated for 90 min at RT before content of the wells is transferred using a cell-harvester to GF/C filter plates, which has been pretreated with 0.1% PEI. The filter is washed 3 times with 1 ml an ice-cold 50 mM Tris buffer, pH 7,4. The filter is dried and added scintillation liquid before the plate is counted in a topcounter 5 minutes pr well.
The total binding, which comprised less than 10% of added radioligand, was defined using assay buffer whereas the non-specific binding was defined in the presence of 1 μM SR142801. The non-specific binding constituted ˜10% of the total binding. Data points are expressed in percent of the specific binding of ^3H-AE93103 and the […] (concentration causing 50% inhibition of ^3H-AE93103 specific binding) are determined by non-linear regression analysis using a sigmoidal variable slope curve fitting.

Compound: CC(=O)N(C)C1(c2ccccc2)CCN(CCC[C@]2(c3ccc(Cl)c(Cl)c3)CCCN(C(=O)c3ccccc3)C2)CC1 [Osanetant]
bioavailability [1]: poor | blood-brain barrier penetration [1]: poor | clearance [1]: relatively high | solubility [2]: poor | Effect in clinical trials, in particular on positive symptoms of psychosis ([3]; delusions, hallucinations and paranoia): superior to placebo

Compound: CCCNn1c(C)c(C(=O)N[C@H](c2cccc(Cl)c2)C2CC2)c2cnccc2c1=O [Example 1c, 3-Methyl-1-oxo-2-propylamino-1,2-dihydro-[2,6]naphthyridine-4-carboxylic acid [(S)-(3-chloro-phenyl)-cyclopropyl-methyl]-amide]
Ki (human NK3 receptor): 540 nM

Compound: CC[C@H](NC(=O)c1c(O)c(-c2ccccc2)nc2ccccc12)c1ccccc1 [talnetant]
bioavailability [1]: poor | blood-brain barrier penetration [1]: poor | clearance [1]: relatively high | solubility [2]: poor | Effect on cognitive behaviour of schizophrenics in clinical trials ([3]; schizophrenics): ameliorate the cognitive behaviour

Compound: CCNn1c(C)c(C(=O)N[C@H](c2cccc(F)c2)C2CCC2)c2cnccc2c1=O [Example 1a, 2-Ethylamino-3-methyl-1-oxo-1,2-dihydro-[2,6]naphthyridine-4-carboxylic acid [(S)-cyclobutyl-(3-fluoro-phenyl)-methyl]-amide]
Ki (human NK3 receptor): 58 nM

Compound: CCCNn1c(C)c(C(=O)N[C@H](c2ccc(F)cc2)C2CC2)c2cnccc2c1=O [Example 1b, 3-Methyl-1-oxo-2-propylamino-1,2-dihydro-[2,6]naphthyridine-4-carboxylic acid [(S)-cyclopropyl-(4-fluoro-phenyl)-methyl]-amide]
Ki (human NK3 receptor): 720 nM

Now from value to compound:

Ki (human NK3 receptor): 91 nM
Compound: CCNn1c(C)c(C(=O)N[C@H](c2cccc(F)c2)C2CCC2)c2ncccc2c1=O [Example 2a, 6-Ethylamino-7-methyl-5-oxo-5,6-dihydro-[1,6]naphthyridine-8-carboxylic acid [(S)-cyclobutyl-(3-fluoro-phenyl)-methyl]-amide]

Ki (human NK3 receptor): 430 nM
Compound: CCCNn1c(C)c(C(=O)N[C@@H](CC)c2ccccc2)c2cnccc2c1=O [Example 1g, 3-Methyl-1-oxo-2-propylamino-1,2-dihydro-[2,6]naphthyridine-4-carboxylic acid ((S)-1-phenyl-propyl)-amide]

Ki (human NK3 receptor): 160 nM
Compound: CCCNn1c(C)c(C(=O)NC(c2ccccc2F)C2CCC2)c2cnccc2c1=O (stereo not drawn) [Example 1d, 3-Methyl-1-oxo-2-propylamino-1,2-dihydro-[2,6]naphthyridine-4-carboxylic acid [cyclobutyl-(2-fluoro-phenyl)-methyl]-amide]

Ki (human NK3 receptor): 33 nM
Compound: CCCNn1c(C)c(C(=O)N[C@H](c2cccc(F)c2)C2CCC2)c2cnccc2c1=O [Example 1e, 3-Methyl-1-oxo-2-propylamino-1,2-dihydro-[2,6]naphthyridine-4-carboxylic acid [(S)-cyclobutyl-(3-fluoro-phenyl)-methyl]-amide]

Ki (human NK3 receptor): 110 nM
Compound: CCNn1c(C)c(C(=O)N[C@H](c2cccc(F)c2)C2CCC2)c2ccncc2c1=O [Example 3a, 2-Ethylamino-3-methyl-1-oxo-1,2-dihydro-2,7-naphthyridine-4-carboxylic acid [(S)-cyclobutyl-(3-fluoro-phenyl)-methyl]-amide]

From US20110224247A1, “AZAISOQUINOLINONE DERIVATIVES AS NK3 ANTAGONISTS” (H. LUNDBECK A/S, priority 2010, published 2011)
